Test results taken from PubChem BioAssay (NCI).
Where “and” joins values, the source holds several entries; their conditions need not be identical. Equal values may be shown once.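 Following 48 hours of exposure in 96-well plates, responses at five concentrations were used to interpolate endpoints linearly. Here, GI50 denotes the concentration required for 50% inhibition of growth. TGI: total growth inhibition.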 *1 amine or outer side, *2 acyl side, *3 side chain or, on linkers, in order; H or OH if unused. Where a SMILES comes first, the peptide text is derived from it. Bridges are numbered along the chain shown (N, C = ends). Roman numbers before positions name the chains, in order. [ ]: non-standard residue; d: D form. Actinocin(9to1) = Cc1c2oc3c(C)ccc(C(=O)[*:1])c3nc-2c(C(=O)[*:2])c(N)c1=O; NMeV = CN[CH](C(=O)O)C(C)C; Sar = CNCC(=O)O

Columns and labels:
Experiment in all cases: inhibition of tumour cell growth, NCI panel, 48 h
K-562 leukemia = system: K-562 leukemia
RPMI-8226 leukemia = system: RPMI-8226 leukemia
OVCAR-5 ovarian = system: OVCAR-5 ovarian
NCI-H226 lung = system: NCI-H226 lung
CCRF-CEM leukemia = system: CCRF-CEM leukemia
UACC-62 melanoma = system: UACC-62 melanoma
MALME-3M melanoma = system: MALME-3M melanoma
SK-MEL-5 melanoma = system: SK-MEL-5 melanoma
HCT-15 colon = system: HCT-15 colon
SF-268 CNS = system: SF-268 CNS

Structure (SMILES) | TGI (K-562 leukemia) | TGI (RPMI-8226 leukemia) | TGI (OVCAR-5 ovarian) | TGI (NCI-H226 lung) | TGI (CCRF-CEM leukemia) | TGI (UACC-62 melanoma) | TGI (MALME-3M melanoma) | TGI (SK-MEL-5 melanoma) | TGI (HCT-15 colon) | TGI (SF-268 CNS) | GI50 (K-562 leukemia) | GI50 (RPMI-8226 leukemia) | GI50 (CCRF-CEM leukemia) | GI50 (SK-MEL-5 melanoma) | GI50 (SF-268 CNS) | GI50 (HCT-15 colon) | GI50 (OVCAR-5 ovarian) | GI50 (NCI-H226 lung) | GI50 (UACC-62 melanoma) | GI50 (MALME-3M melanoma)
C#CC[C@@]12CC(=O)C[C@@H]1CCC1(C2)OCCO1 (tested in a mixture with another compound) | > 100 µM | > 100 µM | > 100 µM | > 100 µM | > 100 µM | > 100 µM | > 100 µM | > 100 µM | > 100 µM | > 100 µM |  |  |  |  |  |  |  |  |  | 
CC(C)(C)c1ccc(C(O)CCCN2CCC(C(O)(c3ccccc3)c3ccccc3)CC2)cc1 (stereo unspecified) | 5.14 µM | 5.49 µM |  |  | 5.8 µM |  | 3.03 µM and 23.7 µM | 2.93 µM and 23.5 µM |  | 2.92 µM | 2.18 µM | 1.94 µM | 2 µM | 1.59 µM and 13.8 µM | 1.57 µM |  |  |  |  | 
Cc1c2oc3c(C)ccc(C(=O)NC4C(=O)NC(Cc5ccccc5)C(=O)N5CCCC5C(=O)N(C)CC(=O)N(C)C(C(C)C)C(=O)OC4C)c3nc-2c(C(=O)NC2C(=O)NC(Cc3ccccc3)C(=O)N3CCCC3C(=O)N(C)CC(=O)N(C)C(C(C)C)C(=O)OC2C)c(N)c1=O (stereo unspecified) (I: TFP[Sar][NMeV] / II: TFP[Sar][NMeV]; ester I:1-I:C, II:1-II:C; linker I:N-II:N via Actinocin(9to1); configuration not given here) | 0.00316 µM | > 100 µM | 0.0551 µM | 0.0214 µM and 0.0312 µM | 0.00791 µM | 0.00232 µM | 0.0187 µM | 0.0192 µM and 0.0125 µM |  | 0.121 µM and 0.528 µM |  |  |  |  |  | 0.017 µM |  |  |  | 
CN1CCN(Cc2c[nH]c3c2C(=O)c2c(c(O)c4ccccc4c2O)C3=O)CC1 | > 100 µM | 26.5 µM | 33.6 µM | 36.5 µM | 18.5 µM | 31.6 µM | 29.3 µM | 26.9 µM | 15.6 µM | 23.2 µM | 2.82 µM | 3 µM | 3.51 µM | 14 µM | 11.1 µM | 3.46 µM | 18.1 µM | 16.8 µM | 16.5 µM | 12.7 µM
